Experimental findings from patent publication US20130289077A1 (priority 2010, published 2013) are described below.

The subject of one series is Phytophthora infestans. The class given is in vivo. The conditions noted are these: tomato young plants, preventive spray, 100 ppm of active ingredient, evaluated 7 days after inoculation; 0% = untreated control, 100% = no disease.
Series [1] is described as follows: Measurement of logP by HPLC on reversed phase columns (EEC directive 79/831 Annex V.A8). In kind it is physicochemical. The note with it: pH 2.7, 0.1% formic acid in water / acetonitrile gradient.

`CCC(C)=NOC(=O)Nc1cccc(CO/N=C(/c2ccccc2)c2nnnn2C)n1` [Example 1, [(butan-2-ylideneamino)oxy]({6-[({[(Z)-(1-methyl-1H-tetrazol-5-yl)(phenyl)methylene]amino}oxy)methyl]pyridin-2-yl}amino)methanone] gave an Eff. % with Phytophthora infestans of 95%. Further, in series [1] (reversed phase HPLC column, read-out: LogP (HCOOH)), the chromatographic logP was 3.27.
Turning to `CCCCC(C)=NOC(=O)Nc1cccc(CON=C(c2ccccc2)c2nnnn2C)n1` [Example 2], in the series with Phytophthora infestans, the Eff. % amounted to 92%. Also, the “LogP (HCOOH)” value in series [1] was 3.96.
`CC(=NOC(=O)Nc1cccc(CON=C(c2ccccc2)c2nnnn2C)n1)c1ccccc1` [Example 3] returned an Eff. % with Phytophthora infestans of 94%.
Compound `CCC(=NOC(=O)Nc1cccc(CON=C(c2ccccc2)c2nnnn2C)n1)c1ccccc1` [Example 4] returned an Eff. % in the series on Phytophthora infestans of 97%.
On the same count and under the same terms, the result for `CC(=NOC(=O)Nc1cccc(CON=C(c2ccccc2)c2nnnn2C)n1)C(C)(C)C` [Example 7] reads 95%; that for `Cn1nnnc1C(=NOCc1cccc(NC(=O)ON=C(CCl)C(C)(C)C)n1)c1ccccc1` [Example 8], 93%.
Regarding `CCCCCCC(C)=NOC(=O)Nc1cccc(CON=C(c2ccccc2)c2nnnn2C)n1` [Example 11], the Eff. % in the series with Phytophthora infestans was 90%. In series [1], the “LogP (HCOOH)” value came out at 4.79.
The compound `CC(=NOC(=O)Nc1cccc(CON=C(c2ccccc2)c2nnnn2C)n1)C(C)C` [Example 13] displayed an Eff. % with Phytophthora infestans of 95%.
On the same count and under the same terms, the result for `CC(C)=NOC(=O)Nc1cccc(CON=C(c2ccccc2)c2nnnn2C)n1` [Example 14] reads 92%; that for `CC(=NOC(=O)Nc1cccc(CON=C(c2ccccc2)c2nnnn2C)n1)C1CC1` [Example 18], 93%.
Regarding `CCCCCC(C)=NOC(=O)Nc1cccc(CON=C(c2ccccc2)c2nnnn2C)n1` [Example 20], the Eff. % in the series with Phytophthora infestans is 95%. For the same compound, in series [1], the “LogP (HCOOH)” value stood at 4.39.
